The structures appear in SMILES notation.

As a reminder, the melting point is the temperature of the solid-liquid transition.

In the case of `CCC(=O)Nc1cc(S(=O)(=O)c2ccccc2)ccc1NC(=NC(=O)OC)NC(=O)OC`, the melting point was found to be 137 °C.

`COc1cc2c3c(ccc(N)c3c1N)C(=O)N(O)C2=O` yielded a melting point of 317 to 318 °C.

On to `Nc1nc(Cl)c2ncn(COCCOC(=O)c3ccccc3)c2n1`, for which the melting point was 130 to 134 °C.

`CC1(C)Oc2ccc(OC(F)(F)F)cc2[C@@H](NC(=O)c2ccc(C(F)(F)F)cc2[N+](=O)[O-])[C@@H]1O`: the melting point was 60 to 65 °C.

`CC(=O)N1c2cc(Cl)cc(Cl)c2C(=O)CC1C(=O)O` (stereo not drawn) returned a melting point of 212 to 213 °C.

Take `CSc1ccc(C2OC(=O)NC2O)cc1` (stereo not drawn): the melting point is 130 to 131 °C.

In turn, `COc1ccc2c(c1)CN(CCc1ccc(NC(=O)c3cccc4c(=O)c5cccc(OC)c5[nH]c34)cc1)CC2` gave a melting point of 213 to 216 °C.

With `COc1cc(C(C)C)ccc1C1(Cl)C(=O)c2cccc([N+](=O)[O-])c2C1=O` (stereo not drawn), the melting point was 81 to 84 °C.

Compound `O=Cc1cccc(Oc2cccc(F)c2)n1` had a melting point of 42 to 43 °C.

Compound `Cn1nc(-c2ccc(F)cc2)c(-c2ccncc2)c1CCCc1ccc(N)cc1` yielded a melting point of 80.5 to 81.1 °C.

For `COC(=O)C(CC(=O)c1cc(Cl)c(C)c(Cl)c1)OC` (stereo not drawn), the melting point is 75 to 78 °C.

As for `CCOc1nc(C)nc(N2CCc3ccccc3CC2)c1C#N`, the melting point was in the range of 106 to 109 °C.

In turn, `CCc1cc(C#N)ccc1N=C1OCC(C)(C)N1C1CCCC1` came in with a melting point of 112 to 114 °C.

With `S=C(OCc1ccc(Cl)c(Cl)c1)SC(Cn1ccnc1)c1ccc(Cl)cc1Cl` (stereo not drawn), the melting point came out at 140 °C.

As to `COc1ccc2c(c1)CCC(=O)N(C(C)=O)CCCC2=O`, the melting point fell in the range of 156 to 158 °C.

Turning to `CCc1nc2c(N)nc3cc(CCCN)ccc3c2n1CC1CCOCC1`, the melting point lay within 217 to 220 °C.

Consider `Cn1cc(-c2cc3cccnc3[nH]2)c2cc(C(=O)NCCO)ccc21`, for which the melting point lay within 256 to 257 °C.

Compound `CCCCCCCCc1ccc(CCC(NC(C)=O)(C(O)OC(C)=O)C(O)OC(C)=O)cc1` (stereo not drawn) came in with a melting point of 105 to 107 °C.

As to `COc1cccc(C(=O)Nc2cnn(Cc3c(C)noc3C)c2)c1`, the melting point was 127 to 129 °C.

Compound `O=C(CSc1ccccc1)c1ccccc1` yielded a melting point of 51 to 52 °C.

The compound `O=C(O)CC1=C(Cc2ccc3c(Cl)cccc3c2)C(=O)CCC1` showed a melting point of 98 to 100 °C.

On to `COc1c(C(O)c2ncc([N+](=O)[O-])n2C)cc(O)cc1C(C)(C)C` (stereo not drawn), for which the melting point lay within 125 to 128 °C.

Turning to `O=C(O)c1c(Cc2cc3c(cc2Cl)OCO3)c(-c2ccsc2)nn1CC1CCCCC1`, the melting point amounted to 250 °C.

Compound `OCc1cc2ccccc2nc1I` showed a melting point of 189 to 190 °C.

Regarding `CC(C)CC(NC(=O)C(Cc1ccccn1)NC(=O)C(Cc1cccc2ccccc12)NC(=O)OCc1ccccc1)C(O)CC(=O)NCCc1ccccn1` (mixture of isomers), the melting point lay within 128 to 133 °C.

For `COc1ccc(C=C2NC(=O)NC2=O)cc1OC1CCCC1`, the melting point is 220 to 222 °C.

Regarding `O=C(Nc1nnn(CC2CC2)n1)C(c1ccccc1)c1ccccc1`, the melting point fell in the range of 147 to 148 °C.

The compound `CC(=O)N1CCC(C)(C)c2cc(/C(C)=C/c3ccc(C(=O)O)cc3)ccc21` showed a melting point of 200 to 202 °C.

Consider `CN1C(=O)C(c2cccc(-c3cccnc3F)c2)(c2cc(C=NO)n(CCCF)c2)N=C1N` (stereo not drawn), for which the melting point was 119 to 123 °C.

`CN1CCN(C(=O)N2CC(Oc3ccc(Br)cc3)C2)CC1` showed a melting point of 91 to 95 °C.

`COc1cc(Oc2ccc(S(C)(=O)=O)nc2)cc2cc(C3=NCC(CC(=O)N(C)C)S3)[nH]c12` (stereo not drawn) yielded a melting point of 206 to 207 °C.

The compound `CCN1c2ncc(CC(F)c3ccncc3)cc2C(=O)N(C)c2ccc(Cl)nc21` (stereo not drawn) gave a melting point of 180 °C.

`CC1(COc2cccc(-c3noc4ccsc34)c2)CO1` (stereo not drawn) displayed a melting point of 84 to 85 °C.

`O=C(O)COc1ccc2cc(-c3csc(Cc4c(Cl)cccc4Cl)n3)ccc2c1` came in with a melting point of 205 to 207 °C.

On to `COC(=O)Cn1cnc2c(OCc3ccccc3)ncnc21`, for which the melting point fell in the range of 112 to 115 °C.

`CN1CCN(c2cc(Cl)cc3c2c(=O)n(Cc2ccc(Cl)cc2)c(=O)n3Cc2ccccc2)CC1` came in with a melting point of 92 to 97 °C.

`NC(N)=Nc1nc(N2CCOCC2)nc2ccccc12`: the melting point came to 197 °C.

Compound `Cc1cc2c(c(C)c1NC=O)CC(C)(CI)O2` (stereo not drawn) returned a melting point of 135 to 138 °C.

In the case of `CCOC(=O)c1cn(-c2ccccc2)nc1OCc1ccc(OCc2nc(-c3ccccc3)oc2C)c(OC)c1`, the melting point was in the range of 160 to 161 °C.

In the case of `c1ccc(Nc2ncc3ccncc3n2)cc1`, the melting point amounted to 161 °C.

For the compound `NS(=O)(=O)c1cccc2cc[nH]c12`, the melting point lay within 125 to 127 °C.

Regarding `Cc1c(Cl)nc2nc(SCc3ccccc3)nn2c1Cl`, the melting point lay in the range of 121 to 123 °C.

In turn, `COC(=O)c1c(I)cccc1Nc1ccccc1C(=O)O` returned a melting point of 191 to 193 °C.

`O=C(CC1CCCC(Cl)C1)Nc1ccccc1` (stereo not drawn) came in with a melting point of 110 to 112 °C.

In turn, `CC(C)(C)OC(=O)N1CCN(c2nc(N)nc3nc(N)c(-c4ccccc4)nc23)CC1` returned a melting point of 245 to 246 °C.

The compound `CCOC(=O)C1Cc2ccc(NC(=O)OCc3ccccc3)cc2NC1=O` (stereo not drawn) gave a melting point of 187 to 189 °C.

Compound `CCOCCCN(C)Cc1ccc(NC(=O)C2=Cc3cc(-c4ccc(C)cc4)ccc3OCC2)cc1` gave a melting point of 119 to 122 °C.

`O=C1c2ccccc2C(=O)N1C[C@H]1CN2C(=O)C[C@@H]2O1` (racemic) had a melting point of 137 to 138 °C.

For the compound `c1ccc(CN2CCC(COc3ccccc3)CC2)cc1`, the melting point lay within 56 to 57 °C.

In turn, `COc1cc(C(=O)c2ccccc2)cc(C#N)c1OC` had a melting point of 98 to 100 °C.

As to `CC(=O)Oc1ccccc1C(=O)Oc1cccc(CO)c1`, the melting point fell in the range of 77 to 79 °C.

As to `CC(=O)OCc1csc(Nc2ccc(Oc3ccccc3)cn2)n1`, the melting point is 158 to 160 °C.

In turn, `Cc1c(C(=O)O)ccc2c1C(O)CCS2(=O)=O` (stereo not drawn) gave a melting point of 172 to 173 °C.

Turning to `CN1C(C(=O)NC2N=C3CCSC=C3S2)=C(O)c2ccc3ccccc3c2S1(=O)=O` (stereo not drawn), the melting point was found to be 255 °C.

In turn, `CCOC(=O)C1=C(O)[C@H](CC2CCCCC2)NC1=O` displayed a melting point of 176 to 180 °C.

In turn, `CN1CCC[C@@H]1Cc1cn(Cc2ccccc2)c2ccc(CS(=O)(=O)N(C)C(c3ccccc3)c3ccccc3)cc12` registered a melting point of 117 to 120 °C.

Take `Oc1cccc(CCCc2cc(C(c3ccccc3)c3ccccc3)on2)c1`: the melting point was in the range of 114 to 117 °C.

For `COc1ccc(NC2=NC(C)(C)Cc3cc(OC)c4c(c32)CC(C)(C)O4)cc1`, the melting point fell in the range of 139 to 140 °C.

The compound `CCOC(=O)C1=C(C)NC(CSCOC(C)=O)=C(C(=O)OCC)C1c1cccc([N+](=O)[O-])c1` (stereo not drawn) showed a melting point of 118 to 121 °C.

For `COCc1[nH]c(=O)[nH]c1C(=O)c1ccc(OC)cc1`, the melting point fell in the range of 211 to 212 °C.

Turning to `CN(CCc1ccccc1)C1CCN(C(=O)Nc2ccccc2)CC1`, the melting point lay within 105 to 107 °C.

In turn, `O=C(c1ccc(-n2ccnc2-c2ccccc2)cc1)C1CC1` showed a melting point of 155 to 157 °C.

In turn, `CC1(C)SC(c2cc(Br)c(O)c(Br)c2)NC1C(=O)O` (stereo not drawn) had a melting point of 154 to 155 °C.

The values above are taken from a melting point compilation (Tetko et al.; mined from patent text by program, amines drawn as free bases though some values may be those of a salt).
